Residues, ends and D or L forms follow the SMILES beside them. *: point of attachment. Cbz = O=C(OCc1ccccc1)*; Boc = CC(C)(C)OC(=O)*
Row | SMILES | melting point [°C]
1 | Cn1cc(-c2cccc(N3Cc4cc(C(C)(C)C)ccc4C3=O)c2CO)nc(Nc2cccnc2)c1=O | 149 to 150
2 | N#CCCNc1ccc(CCCN2CCN(c3ccccc3)CC2)cc1 | 141 to 143
3 | N#CCSc1ccc([N+](=O)[O-])cc1 | 77 to 79
4 | CCCCCCCCCCCC(=O)N1CCOC1=O | 63 to 65
5 | Cc1ccc(-c2nc(N)ncc2-c2ccc(=O)n(C)n2)cc1 | 230
6 | O=C(O)c1c(C(F)(F)F)ccc(Cl)c1Cl | 88 to 89
7 | CCCC(=O)N1CCc2nc3ccccc3c(C)c2CC1 | 130
8 | CCCc1c(OCCC(C)(C)C(=O)NCCCCc2cccnc2)ccc(C(C)=O)c1O | 80 to 83
9 | O=C(O)/C=C/n1cnc2ccc(Cl)cc2c1=O | 297 to 298
10 | Cn1cc(-n2c(-c3cccc(F)c3)nc3c(Cl)ncnc32)ccc1=O | 219
11 | CCOC(=O)c1ncn(-c2nc(C)cs2)c1S | 193 to 195
12 | CCOC(=O)CC1CN(c2c(C)cccc2C)C(=N)N1c1c(C)cccc1C (centres undefined) | 142 to 144
13 | COc1cc(C(=O)Cc2ccccc2)cc([N+](=O)[O-])c1O | 129 to 130
14 | CC(=O)NC1CCNC(c2cccc(Oc3ccccc3)n2)C1 (centres undefined) | 104 to 106
15 | O=C(O)C(=O)c1cn(Cc2ccccc2)c2ccc(-c3ccc(OC(F)(F)F)cc3)cc12 | 169 to 171
16 | CN1C2CCC1CC(NC(=O)c1cccc3nc(-c4ccccc4)oc13)C2 (centres undefined) | 164 to 166
17 | CCOC(=O)NCCC12CC(c3ccccc31)c1ccccc12 | 122 to 123
18 | Cc1ccc(C(=O)C=CN(C)C)s1 | 118 to 121
19 | O=C(NCc1ccc2c(c1)OCO2)c1ccccc1 | 115 to 116
20 | COc1cc(C(=O)Nc2c(C)cc3cn[nH]c3c2C(=O)NC(C)C)n(-c2ncccc2Cl)n1 | 148 to 151
21 | CCCNc1nc(N)nc(-c2ccccc2)c1-c1ccc(=O)n(C(C)C)n1 | 209 to 212
22 | CSC1=Nc2ccc(Cl)cc2C(=O)N(C)C1 | 124 to 127
23 | CC(=O)O[C@H]1C=C(Br)[C@H](O)[C@@H](Br)[C@@H]1O | 150 to 152
24 | N#CN1CCNC(c2ccccc2)c2ccccc2C1 (centres undefined) | 134 to 135
25 | NS(=O)(=O)c1cccc(-c2nc(-c3cnn4c(C(F)(F)F)cc(-c5ccc(C(F)(F)F)cc5)nc34)no2)c1 | 285
26 | Cc1c(F)c(N2CCC(N)C2)c(F)c2c1c(=O)c(C(=O)O)cn2C1CC1 (centres undefined) | > 300

Row | SMILES | melting point [°C]
27 | COc1cc(OCCN2CCCC2)c2c(=O)[nH]c(-c3cc(C)nc(C)c3)nc2c1 | 190 to 191
28 | CC(C)C(CO)(CO)[N+](=O)[O-] | 67 to 72
29 | O=C(CNc1ccccc1Cl)Nc1c(Cl)ccc2nc(N3CC[C@@H](O)C3)ccc12 | 215 to 219
30 | Cc1cccc(-c2n[nH]cc2-c2ccc(F)c(-c3cn(C)cn3)c2)n1 | 168 to 169
31 | Oc1cc2c(cc1CNc1ccc(F)cc1F)OCC2 | 119 to 121
32 | CCOCC(O)(COCC)C(Cc1ccc2ccccc2c1)[N+](=O)[O-] (centres undefined) | 87
33 | Cc1ccc([N+](=O)[O-])c2c1CC(C)O2 (centres undefined) | 69 to 71
34 | COc1ccc(S(=O)(=O)N2c3ccc(Br)cc3-c3ccccc3C2C)cc1 (centres undefined) | 192 to 194
35 | O=C(O)C1=Cc2cc(Cl)c(Oc3cccnc3)cc2OC1C(F)(F)F (centres undefined) | 238 to 239
36 | CCOC(=O)CCCCCC=C(NCCC(O)C1CCCCC1)C(=O)OCC (centres undefined) | 97 to 99
37 | CC(C)CCc1c(-c2ccc(S(C)(=O)=O)cc2)cnn(-c2ccc(F)c(Cl)c2)c1=O | 55 to 58
38 | O=C(CS)N[C@@H](Cc1c[nH]cn1)C(=O)O | 198 to 200
39 | COc1cc(OC)cc(-c2ncn(C)c2-c2ccc(OC(F)F)c(N)c2)c1 | 99.2 to 101
40 | CN1CCC(Nc2cccc(NC(=O)OC(C)(C)C)c2)CC1 | 124 to 125
41 | NCc1ccc(C(=O)CCCN2CCC(c3ccc(Cl)cc3)CC2)cc1 | 94 to 96
42 | CNC(=O)Nc1cccc(C(=O)Nc2ccccn2)c1 | 163 to 164
43 | CCOC(=O)CCc1c(O)ccc2c(=O)c3cc(C(=O)OC)ccc3oc12 | > 215
44 | COc1ccc(Nc2nc(N)c3[nH]c(C)cc3n2)cc1 | 161 to 163
45 | COc1ccc2cc(-c3cnccn3)ccc2n1 | 130 to 132
46 | COP(=O)(Cc1ccc(-c2ccccc2)cc1)OC | 70 to 71
47 | O=C1NCCc2c(OCCCCl)cccc21 | 132 to 133
48 | CC1(C)CCCN(C2c3cc4nonc4cc3OC(C)(C)C2O)C1=O (centres undefined) | 114 to 115
49 | O=C(O)c1c[nH]c(CCc2ccccc2)n1 | 126 to 130
50 | CCOCC1(O)c2ccccc2CCc2cc(OC)c(OC)cc21 (centres undefined) | 98 to 100
51 | COc1ccc(CN(C)CCOc2ccc(NC(=O)c3cccc4c(=O)c5ccccc5[nH]c34)cc2)cc1 | 146
52 | Cc1nn(-c2cc3nc(S(=O)(=O)Cc4ccccc4Cl)sc3cc2Cl)c(=O)n1C(F)F | 196 to 198

Row | SMILES | melting point [°C]
53 | CN(C(=O)OC(C)(C)C)[C@@H]1CCc2c(c3cc(S(=O)(=O)c4ccccc4)ccc3n2C)C1 | 181 to 183
54 | COc1ccc2[nH]c3c(c2c1)C1C(=O)NC(=O)C1C(C(=O)OCc1ccccc1)C3 (centres undefined) | 179 to 181
55 | CCC1(CC)C=C(N2CCSC2=NC#N)c2cc(C#N)ccc2O1 | 251 to 252
56 | Cc1ccc(S(=O)(=O)n2cc(C=O)c3ccc(C(=O)Nc4c(Cl)cncc4Cl)cc32)cc1 | 245
57 | CCOC(=O)c1c(C)nc2c3cccc(Cl)c3ccn12 | 140 to 141
58 | COc1ccc(C(=O)Nc2ccc(C(C)(C)C#N)cc2)cc1 | 169 to 171
59 | COc1ccc(S(N)(=O)=O)cc1C(O)C(C)N=[N+]=[N-] (centres undefined) | 109 to 110
60 | O=c1ccc2c(O)cc(O)cc2[nH]1 | > 300
61 | COc1cccc(-c2nccc3[nH]c(=O)c(-c4noc(C)n4)cc23)c1 | 281 to 282
62 | CCn1c(=O)c2[nH]c(/C=C/c3ccccc3OC)nc2n(CC)c1=O | > 270
63 | O=C(Nc1ccc2ccc(Cl)nc2n1)C1=CSCS1 | 235
64 | CCNCC1CCN(c2cc3c(cc2F)c(=O)c(C(=O)O)cn3CC)C1 (centres undefined) | 248 to 252
65 | CCc1nc(SC)nn1-c1ccc(N)cc1 | 132
66 | CC(C)NCCCOc1ccc(N)cc1Cc1ccccc1 | 41.1
67 | COCCc1nc2c(N)nc3ccccc3c2n1CC(C)C | 168 to 170
68 | O=C(O)COc1ccc2c(c1)CCc1sc(SCCC(c3ccccc3)c3ccccc3)nc1-2 | 138 to 140
69 | N#Cc1cccc(C(=O)c2ccc(S)cc2)c1 | 126
70 | CC(C)CC(NC(=O)OCc1ccccc1)C(=O)NC(CCCCNC(=O)OC(C)(C)C)C(=O)O (stereo not drawn) (Cbz-Leu-Lys(Boc)-OH; configuration not given here) | 125 to 128
71 | Fc1ccccc1Cn1nnc2c(NC3CC3)nccc21 | 245 to 247
72 | OC(c1cc2ccccc2s1)C1CCN(CCc2ccccc2)CC1 (centres undefined) | 178
73 | Cn1nc(CO)nc1NCC(O)CCOc1cccc(CN2CCCCC2)c1 (centres undefined) | 148
74 | O=C(Cn1c(-c2ccncc2)ncc(NC(=O)OCc2ccccc2)c1=O)NC(Cc1ccccc1)C(=O)C(F)(F)F (centres undefined) | 182 to 185
75 | CC1(C)OC(=O)Nc2ccc(-c3cncc(Br)c3)cc21 | 211 to 212
76 | O=C(O)C1CCCC1c1ccc2c(c1)OC[C@H](Cc1ccccc1)[C@H]2O (relative stereo) | 129 to 130
77 | O=C1NC(=S)SC1=Cc1ccc(COc2ccccc2CCc2ccccc2)cc1 | 162 to 163
78 | CC(C)(C(=O)O)N1COC(C(F)F)=C(c2ccccc2)C1=O | 149 to 151

Row | SMILES | melting point [°C]
79 | C[C@H]1CCCC(C)(C)[C@@H]1[C@H](O)c1ccc(C#N)c(Cl)c1 | 116 to 118
80 | CCOP(=O)(COCCOn1cnc2c(N)nc(N)nc21)OCC | 139 to 141
81 | CCOC(=O)C=C(NC(=O)Nc1cc(OC(C)C)c(Cl)cc1F)C(F)(F)F | 144 to 146
82 | O=C(O)c1ccc(-c2coc3ccc(-c4ccccc4)cc23)cc1 | 245 to 248
83 | Fc1ccc(-c2ncn(CCCOc3ccccc3)c2-c2ccncc2)cc1 | 95 to 96
84 | CO[C@@H]1O[C@H](C(N)=O)[C@H]2OC(C)(C)O[C@@H]12 | 134 to 136
85 | CC(=O)c1ccc(S(=O)(=O)NCCN(C)C)cc1 | 87 to 89
86 | O=C1CCCC2=C1C(c1cc(Br)cs1)C1=C(CCS1)N2 (centres undefined) | > 250
87 | O=C(CCc1ccc(Cl)cc1)N1CCC(CCO)CC1 | 88 to 90
88 | Cn1c2c(c3cccc(C(=O)O)c31)CCCC2 | 180
89 | COc1ccc(CS(=O)(=O)c2ccc(S(N)(=O)=O)s2)cc1 | 198 to 203
90 | O=C(O)C1CCCc2cc(C3CCCCC3)c(Cl)cc21 (centres undefined) | 119 to 120
91 | O=C(O)CCC(=O)c1ccc2[nH]c3ncc(Cl)cc3c2c1 | 243
92 | CC(=O)C(=Cc1ccc([N+](=O)[O-])o1)C(C)=O | 117 to 120
93 | Cc1cccc(C(=O)NC(Nc2c(Nc3cccnc3Cl)c(=O)c2=O)C(C)(C)Cc2ccccc2)c1 (centres undefined) | 234 to 235
94 | COc1ccc(-c2coc3c(C)c(OCC4CO4)ccc3c2=O)cc1OC (centres undefined) | 214
95 | O=C(Cl)c1c(Cl)c(Cl)c(Cl)c2c(Cl)c(Cl)c(Cl)c(Cl)c12 | 163 to 165
96 | Fc1ccc(Nc2ncnc3cnc(NC4CCNCC4)nc23)cc1Cl | 239 to 243
97 | C=CCOc1cc([N+](=O)[O-])ccc1OC | 93 to 94
98 | O=C1NC(=O)c2ccc(Br)cc2/C1=C/c1cc(Br)c(O)c(Br)c1 | 167 to 168
99 | COC(=O)c1ccc(Cl)cn1 | 83 to 86
100 | Cc1cnc(NC(=O)C2=C(O)c3ccc4ccccc4c3S(=O)(=O)N2C)s1 | 249 to 250
101 | Cc1cc(C(=O)O)cc(C)c1N=C1NCCN1 | 116 to 117
102 | O=c1c2c(Cl)cccc2nc2sc(Br)cn12 | 174 to 178
103 | NC(=O)Nc1cccc2c1nc(/C=C/c1ccccc1)n2-c1ccccn1 | > 230
104 | Cc1ccc(S(=O)(=O)N(C)c2ccc(O)cc2)cc1[N+](=O)[O-] | 173 to 174
